Values joined by “and” are separate entries in the source; they are usually repeats but may differ in a detail not shown here. Equal values may be shown once. Read-outs that look alike come from different tables or passages of the source.
Columns and labels:
[1] = tested on: peripheral human blood eosinophils; assay: Spontaneous eosinophil apoptosis (annexin V/PI flow cytometry)
Method: To assess glucocorticoid-induced apoptosis, cells were double-stained with annexin V-Fluos and propidium iodide (PI). Annexin V-Fluos was used according to the manufacturer's instructions.
The suspension was incubated at room temperature for 10 min and analyzed in the BD FACS Canto II flow cytometry system (Becton, Dickinson and Company, New Jersey, USA). Eosinophils and EoL-1 cells were gated on the basis of their forward and side light scatter, with cell debris excluded from analysis. Apoptotic cells were defined as annexin V^+/PI^− cells. A two-way dot plot was prepared to verify the percentage of apoptotic cells. Annexin V^−/PI^− cells were used as control and annexin V^+/PI^+ cells were considered necrotic.
All data are expressed as mean±S.E.M. for the number of experiments indicated. Statistical comparisons were made by ANOVA and post-hoc Newman-Keuls test with differences of P<0.05 considered significant.

[2] = tested on: leukocytes (PMN); assay: Leukocytes (PMN) measurement in aqueous humor; type: in vivo, Rabbit; conditions: for PMN in aqueous humor at the second paracentesis, Mean: group mean; for PMN in aqueous humor at the second paracentesis: individual eye sample, listed as BOL
Method: Each rabbit was placed in a restraint device and tagged with the alphanumeric code. The formulations were instilled (50 μl) into the conjunctival sac of both eyes 180, 120, 90 and 30 min before the first paracentesis; then 15, 30, 90 min after the first paracentesis. To perform the first paracentesis the animals were anaesthetized by intravenous injection of 5 mg/kg Zoletil® (Virbac; 2.5 mg/kg tiletamine HCl and 2.5 mg/kg zolazepam HCl) and one drop of local anesthetic (Novesina®, Novartis) was administered to the eye. Anterior chamber paracentesis was performed with a 26 G needle attached to a tuberculin syringe; the needle was introduced into the anterior chamber through the cornea, taking care not to damage the tissues. Two hours after the first paracentesis, the animals were sacrificed with 0.4 ml Tanax® (Intervet International B.V.) and the second paracentesis was performed. About 100 μl of aqueous humor were removed at the second paracentesis. Aqueous humor was immediately split in four aliquots and stored at −80° C. until analysis. Then both eyes were enucleated and the iris-ciliary body was carefully excised, placed in polypropylene tubes, and stored at −80° C. until analysis.
For the determination of the number of leukocytes we used a haemocytometer (Improved Neubauer Chamber; Brigth-line, Hausser Scientific) and a Polyvar 2 microscope (Reichert-Jung).

[3] = tested on: rabbit paracentesis model; assay: Clinical evaluation by slit lamp (clinical score), rabbit paracentesis model; type: in vivo; set-up: key to Clinical Score −180 min / Clinical Score −5 min / Clinical Score +115 min: 0: normal; 1: discrete dilatation of iris and conjunctival vessels; 2: moderate dilatation of iris and conjunctival vessels; 3: intense iridal hyperemia with flare in the anterior chamber; 4: intense iridal hyperemia with flare in the anterior chamber and presence of fibrinous exudates; conditions: for Clinical Score −5 min: 5 min before first paracentesis; for Clinical Score −5 min / Clinical Score +115 min / Clinical Score −180 min: individual eye, scale 0-4; for Clinical Score +115 min: 5 min before second paracentesis; for Clinical Score −180 min: basal
[4] = tested on: human eosinophils; assay: Cytokine-sustained (GM-CSF or IL-5) eosinophil survival; type: cell-based; conditions: for IC50: Homo sapiens, Eosinophil, 48 h, 0.1% FBS
[5] = target: human glucocorticoid receptor (Homo sapiens, UniProt P04150); conditions: Schacke et al. [26]; cited from earlier work
[6] = tested on: primary human conjunctival epithelial cells (HConEpiC); assay: IL-4 and TNF-α-induced cytokine release in HConEpiC (Luminex); type: cell-based; conditions: 24 h
Method: Primary human conjunctival epithelial cells (HConEpiC) were seeded in two 24-well plates in EpiLife medium+1% Human Corneal Growth Supplement (HCGS; contains bovine pituitary extract, bovine insulin, hydrocortisone, bovine transferrin and mouse epidermal growth factor) at 2×10^4 cells/well. When the cells were confluent (4-5 days after seeding), they were incubated in EpiLife GF medium without glucocorticoids (EpiLife basic medium supplemented with 50 μg/ml bovine pituitary extract, 5 μg/ml bovine insulin and 5 ng/ml mouse epidermal growth factor) for 18 h. […] Culture medium was collected. Cytokine analysis was performed on the culture medium using 2 separate cytokine/chemokine Luminex kits (Kit 1: G-CSF, GM-CSF, IL-6, IL-8, IP-10, MCP-1, RANTES; Kit 2: eotaxin-3, CTACK). ICAM-1 expression was determined in cell lysates using a Luminex kit.
Median fluorescence intensity (MFI) was used to obtain the concentration of each cytokine and ICAM-1 in pg/ml based on the standard curve of each cytokine assayed by Luminex using the StatLIA software. ICAM-1 expression was expressed as pg/mg protein. All data were expressed as mean±SEM. Statistical analysis was performed using a two-way ANOVA-Contrast test with Factor 1 being drug and Factor 2 being dose (JMP 8 software, SAS Institute, Cary, N.C.). P<0.05 was considered statistically significant. Data were analyzed either directly or after Box-Cox transformations (9, 10).

Sequence of human glucocorticoid receptor (P04150 whole entry): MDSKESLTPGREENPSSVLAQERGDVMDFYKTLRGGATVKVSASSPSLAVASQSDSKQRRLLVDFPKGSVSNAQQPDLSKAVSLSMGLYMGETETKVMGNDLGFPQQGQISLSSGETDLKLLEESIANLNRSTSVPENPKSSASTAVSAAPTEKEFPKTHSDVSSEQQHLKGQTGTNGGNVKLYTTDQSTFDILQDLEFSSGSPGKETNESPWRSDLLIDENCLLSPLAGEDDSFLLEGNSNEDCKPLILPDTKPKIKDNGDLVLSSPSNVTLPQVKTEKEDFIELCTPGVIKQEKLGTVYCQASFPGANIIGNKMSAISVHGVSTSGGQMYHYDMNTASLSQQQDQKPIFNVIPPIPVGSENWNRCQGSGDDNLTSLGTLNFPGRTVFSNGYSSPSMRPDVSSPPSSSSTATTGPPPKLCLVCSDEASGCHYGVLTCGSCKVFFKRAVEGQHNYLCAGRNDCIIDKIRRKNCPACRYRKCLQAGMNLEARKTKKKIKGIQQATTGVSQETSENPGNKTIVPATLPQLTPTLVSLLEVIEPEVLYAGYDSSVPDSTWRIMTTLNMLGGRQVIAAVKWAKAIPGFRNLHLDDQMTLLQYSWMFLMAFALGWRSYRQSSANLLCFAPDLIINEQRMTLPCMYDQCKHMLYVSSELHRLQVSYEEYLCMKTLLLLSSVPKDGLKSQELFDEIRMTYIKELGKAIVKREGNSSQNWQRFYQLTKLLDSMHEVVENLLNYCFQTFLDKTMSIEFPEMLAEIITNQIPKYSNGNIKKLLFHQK

EC50 ([1]; read-out: EC50, enhancement of spontaneous eosinophil apoptosis, 48 h, 0.1% FBS, no GM-CSF/IL-5, 1-5000 nM): 456 nM
Compound: Cc1ccc2c(NC[C@](O)(CC(C)(C)c3cc(F)cc4c3OCC4)C(F)(F)F)cccc2n1 [BOL-303242-X, (R)-1,1,1-Trifluoro-4-(5-fluoro-2,3-dihydrobenzofuran-7-yl)-4-methyl-2-{[(2-methyl-5-quinolyl)amino]methyl}pentan-2-ol]
Eosinophil apoptosis after 24 h exposure ([1]; 24 h, 0.1% FBS, 100 and 1000 nM, data not shown): lower but significant apoptosis
Percentage of annexin-V+/PI+ (necrotic) peripheral blood eosinophils ([1]; 48 h, 5000 nM, mean±SEM, n=12, p>0.05 vs without compound (34±10%)): 25±9%
Efficacy, enhancement of spontaneous eosinophil apoptosis ([1]; 48 h, 0.1% FBS, no GM-CSF/IL-5, 1-5000 nM): 90%
PMN in aqueous humor at the second paracentesis, Mean ([2]; 0.1% topical): 28.333 number/μl
PMN in aqueous humor at the second paracentesis ([2]; 0.1% topical): 20 number/μl (4×) and 40 number/μl and 50 number/μl
PMN in aqueous humor at the second paracentesis, Mean ([2]; 0.5% topical): 21.250 number/μl
PMN in aqueous humor at the second paracentesis ([2]; 0.5% topical): 40 number/μl (2×) and 20 number/μl (3×) and 10 number/μl (3×)
PMN in aqueous humor at the second paracentesis, Mean ([2]; 1% topical): 28.750 number/μl
PMN in aqueous humor at the second paracentesis ([2]; 1% topical): 30 number/μl (3×) and 20 number/μl (3×) and 40 number/μl (2×)
Clinical Score −5 min ([3]; 0.1% topical): 0
Clinical Score +115 min ([3]; 0.1% topical, listed as BOL): 2 (6×) and 3 (2×)
Percentage of eyes with clinical score 2 ([3]; 0.1% topical, +115 min, 8 eyes): 75%
Percentage of eyes with clinical score 3 ([3]; 0.1% topical, +115 min, 8 eyes): 25%
Clinical Score −180 min ([3]; 0.1% topical): 0
Percentage of eyes with clinical score 0 ([3]; 0.1% topical, −5 min, 8 eyes): 100%
Percentage of eyes with clinical score 0 ([3]; 0.1% topical, −180 min, 8 eyes): 100%
Clinical Score −5 min ([3]; 0.5% topical): 0
Clinical Score +115 min ([3]; 0.5% topical, listed as BOL): 2 (5×) and 1 (3×)
Percentage of eyes with clinical score 1 ([3]; 0.5% topical, +115 min, 8 eyes): 37.5%
Percentage of eyes with clinical score 2 ([3]; 0.5% topical, +115 min, 8 eyes): 62.5%
Clinical Score −180 min ([3]; 0.5% topical): 0
Percentage of eyes with clinical score 0 ([3]; 0.5% topical, −5 min, 8 eyes): 100%
Percentage of eyes with clinical score 0 ([3]; 0.5% topical, −180 min, 8 eyes): 100%
Clinical Score −5 min ([3]; 1% topical): 0
Clinical Score +115 min ([3]; 1% topical): 2
Percentage of eyes with clinical score 2 ([3]; 1% topical, +115 min, 8 eyes): 100%
Clinical Score −180 min ([3]; 1% topical): 0
Percentage of eyes with clinical score 0 ([3]; 1% topical, −5 min, 8 eyes): 100%
Percentage of eyes with clinical score 0 ([3]; 1% topical, −180 min, 8 eyes): 100%
Reversal of cytokine-sustained survival at higher cytokine concentrations ([4]; GM-CSF 200 pM or IL-5 100 pM, data not shown): not, in fact, able to reverse cytokine-sustained survival
IC50 ([4]; GM-CSF 70 pM, read-out: IC50, inhibition of GM-CSF-induced eosinophil survival): 158 nM
IC50 ([4]; IL-5 30 pM, read-out: IC50, inhibition of interleukin-5-induced eosinophil survival): 399 nM
Binding to the human glucocorticoid receptor [5]: high affinity and selectivity
Eotaxin-3 level induced by IL-4 plus TNF-α ([6]; 100 nM): significant elevation of eotaxin-3
Eotaxin-3 level induced by IL-4 plus TNF-α ([6]; 10, 30, 300 and 1000 nM): no effect
IL-8 level induced by IL-4 plus TNF-α ([6]; 10-1000 nM): no effect
IP-10 level induced by IL-4 plus TNF-α ([6]; 30, 100, 300 and 1000 nM): significantly inhibited
IL-6 level induced by IL-4 plus TNF-α ([6]; 300 and 1000 nM): significantly reduced
CTACK level induced by IL-4 plus TNF-α ([6]; all doses 10-1000 nM): significant reduction
G-CSF level induced by IL-4 plus TNF-α ([6]; all doses 10-1000 nM): significantly elevated
GM-CSF level induced by IL-4 plus TNF-α ([6]; all doses 10-1000 nM): significant reduction
MCP-1 level induced by IL-4 plus TNF-α ([6]; all doses 10-1000 nM): significant reduction
RANTES level induced by IL-4 plus TNF-α ([6]; all doses 10-1000 nM): significant reduction
